Experiment [1] has as its system T1, NMDA receptors (native, hippocampal CA1 pyramidal neurons).
T1 construct: gene Grin1; native heteromeric receptor in isolated rat CA1 pyramidal neurons
In words: whole-cell patch clamp, NMDA-evoked steady-state current. Format: cell-based, Rattus norvegicus. Conditions: dark (trans), -70 mV, 100 µM NMDA + 10 µM glycine, pH 7.4, 22-24 °C; voltage-dependent foot-in-the-door pore block; unit inferred, µM from context. (In patch-clamp work, channel activity is measured electrically.)

Experiment [2] has as its system T2, calcium-permeable AMPA receptors (native, giant cholinergic interneurons of the striatum).
T2 construct: gene Gria1; native GluA2(R)-lacking receptors in isolated rat striatal giant interneurons
Briefly: whole-cell patch clamp, kainate-evoked current. In kind it is cell-based, Rattus norvegicus. Conditions: dark (trans), -70 mV, 100 µM kainate, pH 7.4, 22-24 °C; open channel pore block plus minor voltage-independent site; unit inferred, µM from context.

Molecules are shown by their SMILES.

In the case of `C=CC(=O)Nc1ccc(/N=N/c2ccc(NC(=O)C[N+](CC)(CC)CC)cc2)cc1` [AAQ], the figures for the IC50 in experiment [1] and in experiment [2] were 19 ± 1.4 µM and 28.5 ± 1.1 µM, respectively.

In the case of `CC[N+](CC)(CC)CC(=O)Nc1ccc(N=Nc2ccc(NC(=O)C[N+](CC)(CC)CC)cc2)cc1` [QAQ], the figures for the IC50 in experiment [1] and in experiment [2] were 18.6 ± 1 µM and 17 ± 2 µM, respectively.

Values taken from PMC10530362, “Light-Sensitive Open Channel Block of Ionotropic Glutamate Receptors by Quaternary Ammonium Azobenzene Derivatives” (International Journal of Molecular Sciences, 2023).
